Test results: patent publication US20240300936A1 (priority 2021, published 2024)
Counter-ions that a name gives are not always drawn.

Test system: HELA cells
Experiment: HELA cell proliferation assay (CellTitre-Glo, 6 days)
Type: cell-based
Settings: Homo sapiens, 144 h; HELA cells, 6 days treatment, CellTitre-Glo; read-out: HeLa pIC50 (converted)

SMILES	IC50 [M]
Nc1nc(NC2COc3cc(F)cc(F)c32)nc(-c2ccc3cn[nH]c3c2)n1 (stereo not drawn) [Example 90, N2-(4,6-Difluoro-2,3-dihydrobenzofuran-3-yl)-6-(1H-indazol-6-yl)-1,3,5-triazine-2,4-diamine]	1.55e-06
CC(C)(Nc1nc(N)nc(-c2ccc3cn[nH]c3c2)n1)c1ccn(C(F)F)n1 [Example 60, N2-[1-[1-(difluoromethyl)pyrazol-3-yl]-1-methyl-ethyl]-6-(1H-indazol-6-yl)-1,3,5-tri azine-2,4-diamine]	3.47e-08
Nc1nc(NCc2cccc(F)c2Cl)nc(-c2ccc3cncn3c2)n1 [Example 73, N2-[(2-chloro-3-fluoro-phenyl)methyl]-6-imidazo[1,5-a]pyridin-6-yl-1,3,5-triazine-2,4-diamine]	4.27e-07
Cc1cccc(CCNc2nc(N)nc(-c3ccc4cn[nH]c4c3)n2)n1 [Example 54, 6-(1H-indazol-6-yl)-N2-[2-(6-methyl-2-pyridyl)ethyl]-1,3,5-triazine-2,4-diamine]	1.66e-06
Nc1nc(NC2(c3c[nH]cn3)CC2)nc(-c2ccc3cn[nH]c3c2)n1 [Example 86, N2-[1-(1H-Imidazol-4-yl)cyclopropyl]-6-(1H-indazol-6-yl)-1,3,5-triazine-2,4-dia mine; 2,2,2-trifluoroacetate]	1e-05
Nc1nc(NC2(c3ccn(C(F)F)n3)CCC2)nc(-c2ccc3cn[nH]c3c2)n1 [Example 81, N2-[1-[1-(Difluoromethyl)pyrazol-3-yl]cyclobutyl]-6-(1H-indazol-6-yl)-1,3,5-tria zine-2,4-diamine]	2.14e-07
CN(c1nc(N)nc(-c2ccc3cncn3c2)n1)C(C)(C)c1ccn(C(F)F)n1 [Example 34, N4-[1-[1-(difluoromethyl)pyrazol-3-yl]-1-methyl-ethyl]-6-imidazo[1,5-a]pyridin-6-yl-N4-methyl-1,3,5-triazine-2,4-diamine]	7.76e-07
COc1cccc(CNc2nc(N)nc(-c3ccc4cn[nH]c4c3)n2)c1F [Example 85, N2-[(2-Fluoro-3-methoxy-phenyl)methyl]-6-(1H-indazol-6-yl)-1,3,5-triazine-2,4-diamine]	1.58e-06
Nc1nc(NC2COc3cccc(F)c32)nc(-c2ccc3cn[nH]c3c2)n1 (stereo not drawn) [Example 5, N2-(4-fluoro-2,3-dihydrobenzofuran-3-yl)-6-(1H-indazol-6-yl)-1,3,5-triazine-2,4-diamine]	3.39e-06
Cn1ncc2ccc(-c3nc(N)nc(NC4(c5ccn(C(F)F)n5)CCC4)n3)cc21 [Example 82, N4-[1-[1-(Difluoromethyl)pyrazol-3-yl]cyclobutyl]-6-(1-methylindazol-6-yl)-1,3,5-triazine-2,4-diamine]	2.4e-06
Nc1nc(NC2(c3cccc(F)c3F)CC2)nc(-c2ccc3cn[nH]c3c2)n1 [Example 23, N2-[1-(2,3-Difluorophenyl)cyclopropyl]-6-(1H-indazol-6-yl)-1,3,5-triazine-2,4-diamine]	2.24e-07
Cn1ncc2ccc(-c3nc(N)nc(NC(C)(C)c4nn(C(F)F)cc4Cl)n3)cc21 [Example 97, N4-[1-[4-chloro-1-(difluoromethyl)pyrazol-3-yl]-1-methyl-ethyl]-6-(1-methylindazol-6-yl)-1,3,5-triazine-2,4-diamine]	7.94e-07
CC(C)(Nc1nc(N)nc(-c2ccc3cncn3c2)n1)c1ccn(C(F)F)n1 [Example 36, N4-[1-[1-(difluoromethyl)pyrazol-3-yl]-1-methyl-ethyl]-6-imidazo[1,5-a]pyridin-6-yl-1,3,5-triazine-2,4-diamine]	4.47e-08
Nc1nc(NC2(c3nn(C(F)F)cc3Cl)CC2)nc(-c2ccc3cn[nH]c3c2)n1 [Example 84, N4-[1-[4-chloro-1-(difluoromethyl)pyrazol-3-yl]cyclopropyl]-6-(1H-indazol-6-yl)-1,3,5-triazine-2,4-diamine]	6.46e-07
CC(C)(Nc1nc(N)nc(-c2ccc3cn[nH]c3c2)n1)c1cccc(F)c1F [Example 28, N2-[1-(2,3-difluorophenyl)-1-methyl-ethyl]-6-(1H-indazol-6-yl)-1,3,5-triazine-2,4-di amine]	1.91e-07
CN(CCc1cccc(Cl)c1Cl)c1nc(N)nc(-c2ccc3cn[nH]c3c2)n1 [Example 43, N4-[2-(2,3-dichlorophenyl)ethyl]-6-(1H-indazol-6-yl)-N4-methyl-1,3,5-triazine-2,4-diamine]	2.09e-06
Nc1nc(NCc2cccc(F)c2F)nc(-c2ccc3cncn3c2)n1 [Example 30, N4-[(2,3-Difluorophenyl)methyl]-6-imidazo[1,5-a]pyridin-6-yl-1,3,5-triazine-2,4-dia mine]	1.55e-07
Nc1nc(NCc2cccc(C(F)(F)F)n2)nc(-c2ccc3cn[nH]c3c2)n1 [Example 8, 6-(1H-indazol-6-yl)-N2-[[6-(trifluoromethyl)-2-pyridyl]methyl]-1,3,5-triazine-2,4-diamine]	9.33e-07
Nc1nc(NCc2c(Cl)ccc(F)c2F)nc(-c2ccc3cn[nH]c3c2)n1 [Example 51, N2-[(6-chloro-2,3-difluoro-phenyl)methyl]-6-(1H-indazol-6-yl)-1,3,5-triazine-2,4-di amine]	1.48e-06
Cn1ncc2ccc(-c3nc(N)nc(NC(C)(C)c4ccn(C(F)F)n4)n3)cc21 [Example 101, N2-[1-[1-(difluoromethyl)pyrazol-3-yl]-1-methyl-ethyl]-6-(1-methylindazol-6-yl)-1,3,5-triazine-2,4-diamine]	2.57e-07
Nc1nc(NC2(c3ccccn3)CC2)nc(-c2ccc3cn[nH]c3c2)n1 [Example 6, 6-(1H-indazol-6-yl)-N2-[1-(2-pyridyl)cyclopropyl]-1,3,5-triazine-2,4-diamine]	5.89e-07
Nc1nc(NCc2cccc(F)c2F)nc(-c2ccc3cn[nH]c3c2)n1 [Example 70, N2-[(2,3-difluorophenyl)methyl]-6-(1H-indazol-6-yl)-1,3,5-triazine-2,4-diamine]	1.15e-07
Nc1nc(NC2COc3cc(F)ccc32)nc(-c2ccc3cn[nH]c3c2)n1 (stereo not drawn) [Example 89, N2-(6-fluoro-2,3-dihydrobenzofuran-3-yl)-6-(1H-indazol-6-yl)-1,3,5-triazine-2,4-diamine]	8.51e-07
CC(C)(Nc1nc(N)nc(-c2cc(F)c3cn[nH]c3c2)n1)c1ccn(C(F)F)n1 [Example 104, N2-[1-[1-(difluoromethyl)pyrazol-3-yl]-1-methyl-ethyl]-6-(4-fluoro-1H-indazol-6-yl)-1,3,5-triazine-2,4-diamine]	2.19e-07

Same assay, conditions: Homo sapiens, HeLa, 144 h, read-out: HeLa pIC50 (M) (converted)

SMILES	IC50 [M]
CC(C)(Nc1nc(N)nc(-c2ccc3cn[nH]c3c2)n1)c1ccccn1 [Example 12, 6-(1H-indazol-6-yl)-N2-[1-methyl-1-(2-pyridyl)ethyl]-1,3,5-triazine-2,4-diamine hydrochloride]	1.74e-07
CC(C)(Nc1nc(N)nc(-c2ccc3cn[nH]c3c2)n1)c1ccn(CCN2CCCC2)n1 [Example 83, 6-(1H-Indazol-6-yl)-N2-[1-methyl-1-[1-(2-pyrrolidin-1-ylethyl)pyrazol-3-yl]ethyl]-1,3,5-triazine-2,4-diamine hydrochloride]	7.08e-07
Nc1nc(NC2(c3cccc(C(F)(F)F)n3)CC2)nc(-c2ccc3cn[nH]c3c2)n1 [Example 1, 6-(1H-indazol-6-yl)-N2-[1-[6-(trifluoromethyl)-2-pyridyl]cyclopropyl]-1,3,5-triazine-2,4-diamine hydrochloride]	1.07e-06
